In patent publication US12017917B2, “Composition, particulate materials and methods for making particulate materials” (THE UNIVERSITY OF QUEENSLAND, priority 2015, dated 2024):

What was measured:
[1] = system: cattle tick, Rhipicephalus microplus; test: Larval Immersion Test on cattle tick larvae; format: in vivo; settings: Assay 3, 24 h
Procedure: The in vitro effects of spinosad and nano-spinosad on the cattle tick, Rhipicephalus microplus were evaluated. The test was conducted at Biosecurity Sciences Laboratory (Queensland Government) using a standard Larval Immersion Test using organic solvent to extract the actives.
The test was conducted at Biosecurity Sciences Laboratory (Queensland Government) using a standard Larval Immersion Test. In the Larval Immersion Test, both spinosad and nano-Spinsad were firstly dissolved in organic solvent (2% Triton X-100 in acetone) to extract the actives for stock solution (10 mg/ml) and then be diluted in water. […] Three assays were conducted to narrow the LC ranges.

[2] = Release test of nano-spinosad in water (UV-Vis 248 nm); format: physicochemical; settings: 25° C.
Procedure: In a release test, 2.67 mg nano-spinosad-X (containing 1 mg spinosad) was dispersed in 1 ml distilled water, respectively. The mixtures were kept at 25° C. incubator at 200 rpm. The supernatants were collected at different time and the released amount of spinosad was measured and evaluated by using a UV-Vis spectrophotometer at a wavelength of 248 nm. The release amount of pure spinosad in water was also tested using the same procedure.
The release profile of both pure spinosad and nano-spinosad were tested in water. […] On the other hand, for pure spinosad, only 2.4% of spinosad was released at 5 min while the cumulative release is less than 8% even at 540 min. […] Consequently, the release behaviour of spinosad is improved compared to the pure spinosad. The fast release of a higher concentration of spinosad is expected to be beneficial for the development of an “effective-immediately” nano-spinosad formulation.

[3] = UV-stability test of nano-spinosad (HPLC); format: physicochemical; settings: UV 365 nm, 2 h
Procedure: In this test, 1.2 mg pure spinosad and 4.2 mg nano-spinosad-0.4 (containing 1.2 mg spinosad) were added in two transparent quartz containers, respectively. The using of quartz containers is to minimized the shielding of UV light from the containers. Each of the sample was placed under the UV light with a wavelength of 365 nm and power of 17.77 mV cm^−3. All samples were irradiated by the UV light for 2 hours. After the irradiation, the spinosad and its degradation products were extracted by acetonitrile (ACN) for three times and the final concentration was diluted to. 0.5 mg/ml dispersed in 1 ml distilled water. The UV degradation conditions of both pure spinosad and nano-spinosad-0.4 were tested by high-performance liquid chromatography (HPLC) using ACN as the mobile phase.
The UV stability of nano-spinosad was studied. Both spinosad and nano-spinosad were irradiated under UV light (wavelength 365 nm, 17.77 mV/cm^3) for 2 h followed by HPLC which was used to monitor the product after UV treatment utilizing ACN as the extraction media and mobile phase. […] An additional peak at retention time of 1.5 min was also observed in the pure spinosad group, which can be attributed to the degraded product. This observation is in accordance with literature reports, indicating spinosad itself is UV labile.

E. coli [4] = test: In vitro antibacterial activity of lysozyme formulations (OD); format: cell-based; settings: E. coli 5×10^6 CFU mL^−1, 24 h
Procedure: The in vitro antibacterial activity of free lysozyme and lysozyme loaded silica particles formulated using the above procedure were compared by the optical density (OD) measurement. E. coli (5×10^6 CFU mL^−1) was incubated with various concentrations of lysozyme and corresponding lysozyme loaded silica particles for 24 h. […] In contrast, the MIC of free lysozyme towards E. coli cannot be achieved even at the concentration as high as […].

E. coli [5] = test: Long-term bacterial inhibition, bacteria kinetic test under batch culture; format: cell-based; settings: lysozyme 700 μg·mL^−1, 3 days
[6] = system: Escherichia coli (E. coli); test: In vitro antibacterial activity of VAN formulations (OD 600 nm); format: cell-based; settings: VAN content 25 μg ml^−1, after 18 h
Procedure: The use of nanoparticles as a delivery vehicle for antibiotics provides a promising strategy through prolonged drug circulation half-life, increased availability of drugs interacting with membrane molecules and promoted sustained drug release. VAN is an antibiotic useful for the treatment of a number of bacterial infections since it inhibits the cell wall synthesis in susceptible bacteria. […] The in vitro antibacterial activity of VAN, MHS200-VAN and RMHS200-VAN was evaluated by monitoring the optical density (OD) at 600 nm of a bacterial suspension. E. coli (1×10^6 CFU mL^−1) was incubated in Luria-Bertani (LB) medium in a 1.5 ml centrifuge tube at various concentrations of VAN for 18 h. […] This value reduced to 20 μg ml^−1 for RMHS200-VAN which is lower than the dosage used with VAN conjugated MCM-41 (200 μg ml^−1) in in-vitro E. coli culture at 18 h. In a separate experiment, MHS200-VAN, RMHS200-VAN and free VAN with the same VAN content of 25 μg ml^−1 were incubated with 1×10^6 CFU mL^−1 E. Coli in LB media and OD was measured as a function of time.

[7] = UV protection of ivermectin (HPLC); format: physicochemical; settings: free or loaded into particles, UV irradiation 3 h
Procedure: To investigate the UV protection properties of the silica particles toward ivermectin these nano-formulations as well as pure (free) ivermectin were treated under UV irradiation for 3 h. The samples before and after UV irradiation were analysed using high performance liquid chromatography (HPLC) to identify their compositions. […] This may result from the fact that ivermectin is only partially loaded into the internal cavity of the MSHS-SS particles, resulting in only partial protection.

spinosad
LC50 value to larval cattle ticks [1]: 54 ppm | LC99 value to larval cattle ticks [1]: 196 ppm | spinosad released ([2]; at 5 min): 2.4% | cumulative release of spinosad ([2]; at 540 min): less than 8% | UV degradation (HPLC degradation peak) [3]: UV labile

lysozyme [free lysozyme]
MIC towards E. coli (E. coli [4]): > 2 mg | bacterial growth over time (OD) (E. coli [5]): time dependent bacterial growth

CN[C@H](CC(C)C)C(=O)N[C@H]1C(=O)N[C@@H](CC(N)=O)C(=O)N[C@H]2C(=O)N[C@H]3C(=O)N[C@H](C(=O)N[C@H](C(=O)O)c4cc(O)cc(O)c4-c4cc3ccc4O)[C@H](O)c3ccc(c(Cl)c3)Oc3cc2cc(c3O[C@@H]2O[C@H](CO)[C@@H](O)[C@H](O)[C@H]2O[C@H]2C[C@](C)(N)[C@H](O)[C@H](C)O2)Oc2ccc(cc2Cl)[C@H]1O [free VAN, vancomycin]
bacterial growth over time (OD) [6]: re-growth of bacteria

ivermectin [Free ivermectin]
degradation of ivermectin after UV irradiation (HPLC) [7]: fully degraded
